For experiment [1], the target named is recombinant human EGFR L858R/C797S double mutant protein (Homo sapiens (Human), UniProt P00533, C797S/L858R). Briefly: Biological Activity Assay B: biochemical assay against EGFR L858R/C797S protein (EGFR LR/CS). Put shortly: (§1)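 Compounds were tested as 16-point serial dilutions (final DMSO 2.5%) with a Phosphosens peptide sensor/ATP working solution (40 uM/4 mM). The signal was read kinetically over 90 cycles at 120 s intervals. IC50s came from 4-parameter fits of per-well slopes.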
Sequence of recombinant human EGFR L858R/C797S double mutant protein (P00533 25-1210 C797S/L858R): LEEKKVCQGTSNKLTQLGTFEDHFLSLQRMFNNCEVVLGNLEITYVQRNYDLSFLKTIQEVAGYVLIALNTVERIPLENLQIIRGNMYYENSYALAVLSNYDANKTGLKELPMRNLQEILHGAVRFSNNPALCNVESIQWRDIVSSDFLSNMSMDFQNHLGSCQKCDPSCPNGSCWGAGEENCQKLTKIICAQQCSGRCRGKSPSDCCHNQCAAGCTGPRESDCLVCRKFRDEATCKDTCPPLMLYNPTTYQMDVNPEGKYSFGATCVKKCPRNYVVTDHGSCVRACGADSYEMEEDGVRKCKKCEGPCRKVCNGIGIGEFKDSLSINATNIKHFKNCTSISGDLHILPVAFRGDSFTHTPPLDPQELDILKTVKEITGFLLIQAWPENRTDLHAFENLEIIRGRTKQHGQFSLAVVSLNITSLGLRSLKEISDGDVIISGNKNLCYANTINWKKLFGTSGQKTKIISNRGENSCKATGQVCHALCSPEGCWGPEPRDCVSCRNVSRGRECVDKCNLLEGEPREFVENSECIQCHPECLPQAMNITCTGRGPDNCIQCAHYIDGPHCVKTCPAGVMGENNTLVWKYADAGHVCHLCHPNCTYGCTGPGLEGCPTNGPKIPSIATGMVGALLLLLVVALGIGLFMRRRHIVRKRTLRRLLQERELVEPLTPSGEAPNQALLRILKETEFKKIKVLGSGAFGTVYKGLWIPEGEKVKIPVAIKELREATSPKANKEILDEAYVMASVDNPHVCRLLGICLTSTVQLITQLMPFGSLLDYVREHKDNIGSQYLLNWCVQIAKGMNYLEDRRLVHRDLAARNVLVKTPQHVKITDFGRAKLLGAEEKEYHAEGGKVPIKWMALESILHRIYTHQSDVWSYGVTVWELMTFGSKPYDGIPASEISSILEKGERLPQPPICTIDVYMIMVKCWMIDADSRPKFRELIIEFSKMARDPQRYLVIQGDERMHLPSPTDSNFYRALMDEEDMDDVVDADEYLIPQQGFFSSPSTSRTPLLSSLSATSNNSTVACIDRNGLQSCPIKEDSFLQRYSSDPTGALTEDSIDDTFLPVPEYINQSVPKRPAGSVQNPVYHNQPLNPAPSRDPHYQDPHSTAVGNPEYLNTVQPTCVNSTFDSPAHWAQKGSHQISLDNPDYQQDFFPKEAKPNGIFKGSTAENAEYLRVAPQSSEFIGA

The test system of a further experiment is BaF3_EGFR d19/CS cells. In words: Biological Activity Assay D: BaF3 cell proliferation assay, EGFR exon 19 deletion/C797S (BaF3 d19/CS). Format: cell-based. Particulars: Ba/F3 EGFR; BaF3_EGFR d19/CS cells, ~72 hours, CellTiter-Glo; read-out: BaF3 d19/CS IC50.
The next experiment deals with BaF3_EGFR LR/CS cells. In words: Biological Activity Assay D: BaF3 cell proliferation assay, EGFR L858R/C797S mutant (BaF3 LR/CS). Format: cell-based. Particulars: Ba/F3 EGFR; BaF3_EGFR LR/CS cells, ~72 hours, CellTiter-Glo; read-out: BaF3 LR/CS IC50. (In ATP-based viability assays light output follows the ATP content of the culture.)
For experiment [2], the target named is recombinant human EGFR exon 19 deletion/C797S double mutant protein (Homo sapiens (Human), UniProt P00533, C797S/DEL746-750). In words: Biological Activity Assay C: biochemical assay against EGFR exon 19 deletion/C797S protein (EGFR d19/CS). Put shortly:
as §1

The test system of the next experiment is Ba/F3_EGFR WT cells. In words: Biological Activity Assay D: BaF3 cell proliferation assay, EGFR wild-type (BaF3 WT). Format: cell-based. Particulars: Ba/F3 EGFR; Ba/F3_EGFR WT cells, ~72 hours, CellTiter-Glo; read-out: BaF3 WT IC50.

Where only a bound is given, the exact number is not on record here.

Sequence of recombinant human EGFR exon 19 deletion/C797S double mutant protein (P00533 other isoform, or with tags, fused parts or gaps C797S/del 1-668/del 746-750 limits assumed): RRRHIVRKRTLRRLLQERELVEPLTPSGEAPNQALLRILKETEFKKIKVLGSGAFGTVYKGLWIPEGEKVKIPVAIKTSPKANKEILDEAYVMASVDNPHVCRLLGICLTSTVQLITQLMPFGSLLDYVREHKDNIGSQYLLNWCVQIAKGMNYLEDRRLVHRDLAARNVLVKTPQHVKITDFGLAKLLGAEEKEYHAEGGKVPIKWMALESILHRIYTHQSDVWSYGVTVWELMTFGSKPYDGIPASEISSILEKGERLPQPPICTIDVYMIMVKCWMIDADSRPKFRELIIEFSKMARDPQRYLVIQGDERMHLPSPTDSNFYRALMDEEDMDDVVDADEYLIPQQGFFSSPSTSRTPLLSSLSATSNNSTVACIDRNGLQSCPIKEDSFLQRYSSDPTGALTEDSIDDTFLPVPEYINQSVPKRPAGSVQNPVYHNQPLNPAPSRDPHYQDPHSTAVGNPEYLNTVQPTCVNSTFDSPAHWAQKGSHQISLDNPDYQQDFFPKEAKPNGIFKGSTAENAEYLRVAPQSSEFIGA

For `Fc1ccc(-c2nn(CCC3COC3)cc2-c2ncnc3oc(-c4ccccc4)cc23)cc1` [Example 64, 4-{3-(4-Fluorophenyl)-1-[2-(oxetan-3-yl)ethyl]-1H-pyrazol-4-yl}-6-phenylfuro[2,3-d]pyrimidine], the IC50 in experiment [1] amounted to 0.779 nM; with BaF3_EGFR d19/CS cells, 62.9 nM; in the experiment with BaF3_EGFR LR/CS cells, 99.1 nM; in experiment [2] it was 1.1 nM; in the experiment with Ba/F3_EGFR WT cells it was 1460 nM.

For the compound `NS(=O)(=O)CCCn1cc(-c2ncnc3oc(-c4ccccc4)cc23)c(-c2ccc(F)cc2)n1` [Example 65, 3-[3-(4-Fluorophenyl)-4-(6-phenylfuro[2,3-d]pyrimidin-4-yl)-1H-pyrazol-1-yl]propane-1-sulfonamide], the IC50 in experiment [1] is 0.263 nM; in the experiment with BaF3_EGFR d19/CS cells, 19.9 nM; with BaF3_EGFR LR/CS cells, 24.3 nM; in experiment [2], 0.341 nM; in the experiment on Ba/F3_EGFR WT cells it was 589 nM.

As to `CC(C)(O)CCc1nc(-c2ccc(F)cc2)c(-c2ncnc3sc(-c4ccccc4)cc23)o1` [Example 66, 4-[4-(4-fluorophenyl)-5-(6-phenylthieno[2,3-d]pyrimidin-4-yl)-1,3-oxazol-2-yl]-2-methylbutan-2-ol], the IC50 in experiment [1] is 14.5 nM; in the experiment with BaF3_EGFR d19/CS cells, 1290 nM; in the experiment with BaF3_EGFR LR/CS cells it was 2690 nM; in experiment [2], 8.12 nM; in the experiment on Ba/F3_EGFR WT cells it was more than 20000 nM.

As for `CC(C)(O)CCn1cc(-c2ncnc3sc(-c4ccccc4)cc23)c(-c2ccc(F)cc2)n1` [Example 67, 4-[3-(4-fluorophenyl)-4-(6-phenylthieno[2,3-d]pyrimidin-4-yl)-1H-pyrazol-1-yl]-2-methylbutan-2-ol], the IC50 in experiment [1] is 15.6 nM; in the experiment on BaF3_EGFR d19/CS cells it was 1050 nM; in the experiment on BaF3_EGFR LR/CS cells, 1630 nM; in experiment [2], 18.6 nM; in the experiment with Ba/F3_EGFR WT cells, 8040 nM.

Turning to `Fc1ccc(-c2nn(CC3CCO3)cc2-c2ncnc3oc(-c4ccccc4)cc23)cc1` (stereo not drawn) [Example 69, 4-{3-(4-Fluorophenyl)-1-[(oxetan-2-yl)methyl]-1H-pyrazol-4-yl}-6-phenylfuro[2,3-d]pyrimidine], the IC50 was 0.452 nM in experiment [1]; 68.6 nM with BaF3_EGFR d19/CS cells; 40.2 nM in the experiment on BaF3_EGFR LR/CS cells; 0.378 nM in experiment [2]; 2340 nM with Ba/F3_EGFR WT cells.

Consider `N#CCCn1cc(-c2ncnc3oc(-c4ccccc4)cc23)c(-c2ccc(F)cc2)n1` [Example 70, 3-[3-(4-Fluorophenyl)-4-(6-phenylfuro[2,3-d]pyrimidin-4-yl)-1H-pyrazol-1-yl]propanenitrile], for which the IC50 in experiment [1] was found to be 0.328 nM; with BaF3_EGFR d19/CS cells, 11.5 nM; with BaF3_EGFR LR/CS cells, 7.9 nM; in experiment [2], 0.346 nM; in the experiment on Ba/F3_EGFR WT cells, 681 nM.

`FCCCCn1cc(-c2ncnc3oc(-c4ccccc4)cc23)c(-c2ccc(F)cc2)n1` [Example 71, 4-[1-(4-fluorobutyl)-3-(4-fluorophenyl)-1H-pyrazol-4-yl]-6-phenylfuro[2,3-d]pyrimidine]: the IC50 is 1.25 nM in experiment [1]; 151 nM with BaF3_EGFR d19/CS cells; 84.1 nM in the experiment on BaF3_EGFR LR/CS cells; 1.62 nM in experiment [2]; 2620 nM in the experiment with Ba/F3_EGFR WT cells.

`OCCCc1nc(-c2ccc(F)cc2)c(-c2ncnc3sc(-c4ccccc4)cc23)o1` [Example 74, 3-[4-(4-fluorophenyl)-5-(6-phenylthieno[2,3-d]pyrimidin-4-yl)-1,3-oxazol-2-yl]propan-1-ol]: the IC50 is 9.37 nM in experiment [1]; 920 nM with BaF3_EGFR d19/CS cells; 267 nM in the experiment with BaF3_EGFR LR/CS cells; 2.9 nM in experiment [2]; more than 20000 nM with Ba/F3_EGFR WT cells.

For the compound `COC1(Cn2cc(-c3ncnc4oc(-c5ccccc5)cc34)c(-c3ccc(F)cc3)n2)COC1` [Example 75, 4-{3-(4-fluorophenyl)-1-[(3-methoxyoxetan-3-yl)methyl]-1H-pyrazol-4-yl}-6-phenylfuro[2,3-d]pyrimidine], the IC50 in experiment [1] is 1.01 nM; in the experiment on BaF3_EGFR d19/CS cells it was 150 nM; in the experiment on BaF3_EGFR LR/CS cells it was 131 nM; in experiment [2], 1.49 nM; in the experiment on Ba/F3_EGFR WT cells, 5920 nM.

For `Fc1ccc(-c2nn(C3CCOCC3)cc2-c2ncnc3oc(-c4ccccc4)cc23)cc1` [Example 76, 4-[3-(4-Fluorophenyl)-1-(oxan-4-yl)-1H-pyrazol-4-yl]-6-phenylfuro[2,3-d]pyrimidine], the IC50 in experiment [1] stood at 0.94 nM; in the experiment with BaF3_EGFR d19/CS cells, 31 nM; in the experiment with BaF3_EGFR LR/CS cells it was 45.5 nM; in experiment [2], 0.7 nM; with Ba/F3_EGFR WT cells, 2020 nM.

In the case of `CC(C)(C(N)=O)n1cc(-c2ncnc3oc(-c4ccccc4)cc23)c(-c2ccc(F)cc2)n1` [Example 77, 2-[3-(4-Fluorophenyl)-4-(6-phenylfuro[2,3-d]pyrimidin-4-yl)-1H-pyrazol-1-yl]-2-methylpropanamide], the IC50 in experiment [1] stood at 1.36 nM; with BaF3_EGFR d19/CS cells it was 72.2 nM; in the experiment on BaF3_EGFR LR/CS cells, 139 nM; in experiment [2], 1.61 nM; in the experiment with Ba/F3_EGFR WT cells it was 5180 nM.

As for `OCC(F)(F)Cn1cc(-c2ncnc3oc(-c4ccccc4)cc23)c(-c2ccc(F)cc2)n1` [Example 78, 2,2-Difluoro-3-[3-(4-fluorophenyl)-4-(6-phenylfuro[2,3-d]pyrimidin-4-yl)-1H-pyrazol-1-yl]propan-1-ol], the IC50 came out at 0.48 nM in experiment [1]; 18.4 nM in the experiment on BaF3_EGFR d19/CS cells; 23.2 nM with BaF3_EGFR LR/CS cells; 0.37 nM in experiment [2]; 2730 nM with Ba/F3_EGFR WT cells.

`CS(=O)(=O)Cn1cc(-c2ncnc3oc(-c4ccccc4)cc23)c(-c2ccc(F)cc2)n1` [Example 79, 4-{3-(4-fluorophenyl)-1-[(methanesulfonyl)methyl]-1H-pyrazol-4-yl}-6-phenylfuro[2,3-d]pyrimidine]: the IC50 in experiment [1] amounted to 2.64 nM; with BaF3_EGFR d19/CS cells it was 111 nM; with BaF3_EGFR LR/CS cells, 116 nM; in experiment [2], 1.99 nM; with Ba/F3_EGFR WT cells, 10200 nM.

As to `Fc1ccc(-c2nn(C3COC3)nc2-c2ncnc3oc(-c4ccccc4)cc23)cc1` [Example 81, 4-[5-(4-fluorophenyl)-2-(oxetan-3-yl)-2H-1,2,3-triazol-4-yl]-6-phenylfuro[2,3-d]pyrimidine], the IC50 came out at 2.58 nM in experiment [1]; 330 nM in the experiment on BaF3_EGFR d19/CS cells; 241 nM in the experiment on BaF3_EGFR LR/CS cells; 1.12 nM in experiment [2]; 13500 nM in the experiment on Ba/F3_EGFR WT cells.

Consider `CC(C)(O)CCn1nc(-c2ccc(F)cc2)c(-c2ncnc3oc(-c4ccccc4)cc23)n1` [Example 82, 4-[4-(4-fluorophenyl)-5-(6-phenylfuro[2,3-d]pyrimidin-4-yl)-2H-1,2,3-triazol-2-yl]-2-methylbutan-2-ol], for which the IC50 in experiment [1] is 4.33 nM; with BaF3_EGFR d19/CS cells, 597 nM; with BaF3_EGFR LR/CS cells it was 392 nM; in experiment [2], 2.86 nM; in the experiment with Ba/F3_EGFR WT cells, more than 20000 nM.

With `O=S1(=O)CCCC(n2cc(-c3ncnc4oc(-c5ccccc5)cc34)c(-c3ccc(F)cc3)n2)C1` (stereo not drawn) [Example 84, 3-[3-(4-fluorophenyl)-4-(6-phenylfuro[2,3-d]pyrimidin-4-yl)-1H-pyrazol-1-yl]-1λ6-thiane-1,1-dione], the IC50 in experiment [1] is 6.21 nM; in the experiment with BaF3_EGFR d19/CS cells, 779 nM; in the experiment with BaF3_EGFR LR/CS cells it was 566 nM; in experiment [2], 10.8 nM; in the experiment on Ba/F3_EGFR WT cells it was more than 20000 nM.

For the compound `CC(=O)N1CC(n2cc(-c3ncnc4oc(-c5ccccc5)cc34)c(-c3ccc(F)cc3)n2)C1` [Example 86, 1-{3-[3-(4-fluorophenyl)-4-(6-phenylfuro[2,3-d]pyrimidin-4-yl)-1H-pyrazol-1-yl]azetidin-1-yl}ethan-1-one], the IC50 turned out to be 6.25 nM in experiment [1]; 429 nM with BaF3_EGFR d19/CS cells; 390 nM with BaF3_EGFR LR/CS cells; 6.67 nM in experiment [2]; 7380 nM in the experiment with Ba/F3_EGFR WT cells.

As to `CS(=O)(=O)CCn1nc(-c2ccc(F)cc2)c(-c2ncnc3oc(-c4ccccc4)cc23)n1` [Example 87, 4-{5-(4-fluorophenyl)-2-[2-(methanesulfonyl)ethyl]-2H-1,2,3-triazol-4-yl}-6-phenylfuro[2,3-d]pyrimidine], the IC50 is 1.56 nM in experiment [1]; 196 nM in the experiment with BaF3_EGFR d19/CS cells; 140 nM with BaF3_EGFR LR/CS cells; 1.34 nM in experiment [2]; 2810 nM in the experiment with Ba/F3_EGFR WT cells.

As for `CC(C)(O)Cn1nc(-c2ccc(F)cc2)c(-c2ncnc3oc(-c4ccccc4)cc23)n1` [Example 88, 1-[4-(4-fluorophenyl)-5-(6-phenylfuro[2,3-d]pyrimidin-4-yl)-2H-1,2,3-triazol-2-yl]-2-methylpropan-2-ol], the IC50 in experiment [1] was determined as 1.22 nM; in the experiment with BaF3_EGFR d19/CS cells, 238 nM; in the experiment with BaF3_EGFR LR/CS cells it was 301 nM; in experiment [2] it was 0.64 nM; with Ba/F3_EGFR WT cells it was 3740 nM.

Regarding `CC(=O)N1CCC(n2cc(-c3ncnc4oc(-c5ccccc5)cc34)c(-c3ccc(F)cc3)n2)C1` (stereo not drawn) [Example 92, 1-{3-[3-(4-fluorophenyl)-4-(6-phenylfuro[2,3-d]pyrimidin-4-yl)-1H-pyrazol-1-yl]pyrrolidin-1-yl}ethan-1-one], the IC50 in experiment [1] came to 0.95 nM; in the experiment with BaF3_EGFR d19/CS cells, 255 nM; with BaF3_EGFR LR/CS cells, 231 nM; in experiment [2], 0.84 nM; with Ba/F3_EGFR WT cells, 6220 nM.

Take `COC(C)(C)Cn1cc(-c2ncnc3oc(-c4ccccc4)cc23)c(-c2ccc(F)cc2)n1` [Example 93, 4-[3-(4-fluorophenyl)-1-(2-methoxy-2-methylpropyl)-1H-pyrazol-4-yl]-6-phenylfuro[2,3-d]pyrimidine]: the IC50 in experiment [1] was 0.91 nM; in the experiment with BaF3_EGFR d19/CS cells, 450 nM; with BaF3_EGFR LR/CS cells it was 184 nM; in experiment [2], 0.73 nM; with Ba/F3_EGFR WT cells, 4290 nM.

The record behind these values is patent US20250034159A1, “INHIBITORS OF EPIDERMAL GROWTH FACTOR RECEPTOR” (ORIC Pharmaceuticals, Inc., priority 2021, published 2025).
